This note sets out measurements from patent US20240317740A1, “NOVEL COMPOUNDS AND THEIR USE” (Debiopharm International S.A., priority 2021, published 2024).

Converted amounts (≈) assume the structure as drawn. Bounds are passed on as bounds.

In general, MIC refers to the lowest concentration that inhibits growth of the organism. Low readings indicate a more susceptible organism, high ones a less susceptible organism. By IC50 is commonly meant the concentration needed to halve the response being measured.

The subject of experiment [1] is A. baumannii ATCC BAA1605. Briefly: Broth microdilution MIC assay. Type of experiment: cell-based. The note with it: Acinetobacter baumannii, ATCCBAA1605; CA-MHB, 1% DMSO, 35° C., 20 hours. As for the experimental part: (§1) The antibacterial activity of Fabl inhibitors against select Gram-negative and Gram-positive bacterial species including susceptible and multi-drug resistant A. baumannii, E. coli, K. pneumoniae and S. aureus was tested using the broth microdilution Minimal Inhibitory Concentration (MIC) assay following CLSI guidelines for insoluble compounds. Test articles were serially diluted 2-fold in 100% dimethyl sulfoxide (DMSO) and then diluted 100-fold into cation adjusted Mueller-Hinton broth (CA-MHB) to achieve a 10-point test concentration range in 1% DMSO. Final compound concentrations were 0.016-8 μg/ml for S. aureus or 0.06-32 μg/ml for the Gram-negative species. MIC test plates were then prepared by transferring 100 μl of the final assay medium (test article in CA-MHB, 1% DMSO) into the appropriate wells of a sterile, low binding 96-well polystyrene plate. Direct colony suspension inoculums of the test strains were freshly prepared per CLSI guidelines, and the appropriate test wells were inoculated to achieve a final bacterial cell density of 5×10^5 CFU/ml. Growth control (no test article) and negative control (no bacterial inoculum) wells were also included. Exposure to light was minimized during all stages of assay preparation. MIC test plates were incubated at 35° C. for 20 hours. Bacterial growth was then determined by measuring the optical density at 600 nm (OD600) using a SpectraMax Plus plate-reader spectrophotometer.
(Broth dilution looks for growth in wells or tubes with falling amounts of substance.)

In experiment [2] the test system is S. aureus ATCC 29213. Briefly: Broth microdilution MIC assay. Type of experiment: cell-based. The note with it: Staphylococcus aureus, ATCC29213; CA-MHB, 1% DMSO, 35° C., 20 hours. As for the experimental part:
as §1

Experiment [3] concerns E. coli AG100. Briefly: Broth microdilution MIC assay. The class given is cell-based. To be noted: Escherichia coli, CA-MHB, 1% DMSO, 35° C., 20 hours. Here is the method:
as §1

In experiment [4] the target is A. baumannii FabI (Acinetobacter baumannii, UniProt D0CAD5). Description: Inhibition of FabI enzyme (NADH consumption rate). The class given is biochemical. To be noted: recombinant FabI, 30° C., pH 7.25. As for the experimental part: Inhibition of Fabl enzyme from Acinetobacter baumannii and Escherichia coli was tested by measuring the rate of NADH consumption (Aabsorbance at 340 nm/min) at 30° C. in 96-well plate format using an automated plate reader in the presence or absence of the test compounds. The assay mixture contained 100 mM Tris-HCl, pH 7.25 (A. baumannii) or 7.5 (E. coli), 100 mM ammonium acetate, 0.02% (A. baumannii) or 0.05% (E. coli) Pluronic F-68, 25 μM crotonyl ACP, 50 μM NADH, […] recombinant Fabl protein, and 7.5% DMSO. Test compounds were added at concentrations ranging from 0.17 to 10,000 nM in a final well volume of 100 μl. This dose-response inhibitory assay was performed using a 10-point, serial dilution series for each test compound. IC50 values for each test compound were assigned from logistical sigmoid curve-fitting of the inhibition dose response curves.

For experiment [5], the system named is K. pneumoniae A6030827. Description: Broth microdilution MIC assay. Type of experiment: cell-based. To be noted: Klebsiella pneumoniae, CA-MHB, 1% DMSO, 35° C., 20 hours. As for the experimental part: as §1

Chain of A. baumannii FabI (D0CAD5 1-288): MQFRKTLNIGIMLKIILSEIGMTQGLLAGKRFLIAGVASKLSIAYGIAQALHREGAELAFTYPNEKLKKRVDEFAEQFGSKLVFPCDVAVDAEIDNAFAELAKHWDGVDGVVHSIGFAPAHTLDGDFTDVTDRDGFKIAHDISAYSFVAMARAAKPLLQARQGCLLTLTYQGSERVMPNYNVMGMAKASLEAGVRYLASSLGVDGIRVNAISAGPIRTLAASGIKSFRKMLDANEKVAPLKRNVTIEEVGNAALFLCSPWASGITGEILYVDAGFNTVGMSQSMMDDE

As to `Cc1oc2ccccc2c1CN(C)C(=O)/C=C/c1cnc2c(c1)CCC(N1CCCC1)C(=O)N2` (single isomer, unassigned) [Compound 25, (S*,E)-N-methyl-N-((2-methylbenzofuran-3-yl)methyl)-3-(8-oxo-7-(pyrrolidin-1-yl)-6,7,8,9-tetrahydro-5H-pyrido[2,3-b]azepin-3-yl)acrylamide], the MIC in experiment [1] was at most 4 µg/mL; in experiment [2], at most 4 µg/mL; in experiment [3], 8 µg/mL (≈ 17.4 µM). Moreover, the 50% inhibitory concentration (IC50) in experiment [4] was below 10 nM.
`Cc1oc2ccccc2c1CN(C)C(=O)/C=C/c1cnc2c(c1)CCC(N1CC[C@@H](O)C1)C(=O)N2` (single isomer, unassigned) [Compound 28, (E)-3-((R*)-7-((R)-3-hydroxypyrrolidin-1-yl)-8-oxo-6,7,8,9-tetrahydro-5H-pyrido[2,3-b]azepin-3-yl)-N-methyl-N-((2-methylbenzofuran-3-yl)methyl)acrylamide]: the half-inhibitory concentration (IC50) in experiment [4] is below 10 nM.
Turning to `Cc1oc2ccccc2c1CN(C)C(=O)/C=C/c1cnc2c(c1)CCC(C)(N)C(=O)N2` (single isomer, unassigned) [Compound 39, (S*,E)-3-(7-amino-7-methyl-8-oxo-6,7,8,9-tetrahydro-5H-pyrido[2,3-b]azepin-3-yl)-N-methyl-N-((2-methylbenzofuran-3-yl)methyl)acrylamide], the MIC in experiment [1], in experiment [2] and in experiment [3] was at most 4 µg/mL throughout. Moreover, the IC50 in experiment [4] was below 10 nM.
Regarding `Cc1oc2ccccc2c1CN(C)C(=O)/C=C/c1cnc2c(c1)CCC(N1CC[C@@H](O)C1)C(=O)N2` (stereo in doubt) [Compound 28, (E)-3-((R*)-7-((R)-3-hydroxypyrrolidin-1-yl)-8-oxo-6,7,8,9-tetrahydro-5H-pyrido[2,3-b]azepin-3-yl)-N-methyl-N-((2-methylbenzofuran-3-yl)methyl)acrylamide], the minimum inhibitory concentration (MIC) in experiment [1] was at most 4 µg/mL; in experiment [2] it was at most 4 µg/mL; in experiment [3], 8 µg/mL (≈ 16.9 µM).
Turning to `CNC1CCc2cc(/C=C/C(=O)N(C)Cc3c(C)oc4ccccc34)cnc2NC1=O` (centres unmarked) [Compound 11, (E)-N-methyl-3-(7-(methylamino)-8-oxo-6,7,8,9-tetrahydro-5H-pyrido[2,3-b]azepin-3-yl)-N-((2-methylbenzofuran-3-yl)methyl)acrylamide], the MIC is 8 µg/mL (≈ 19.1 µM) in experiment [1], at most 4 µg/mL in experiment [2], 8 µg/mL (≈ 19.1 µM) in experiment [3] and 8 µg/mL (≈ 19.1 µM) in experiment [5]. In addition, the IC50 in experiment [4] was below 10 nM.
Take `Cc1oc2ccccc2c1CN(C)C(=O)/C=C/c1cnc2c(c1)CCC(N(C)C)C(=O)N2` (centres unmarked) [Compound 13, (E)-3-[7-(dimethylamino)-8-oxo-5,6,7,9-tetrahydropyrido[2,3-b]azepin-3-yl]-N-methyl-N-[(2-methylbenzofuran-3-yl)methyl]prop-2-enamide]: the MIC is at most 4 µg/mL in experiment [1], at most 4 µg/mL in experiment [2], 16 µg/mL (≈ 37 µM) in experiment [3] and 8 µg/mL (≈ 18.5 µM) in experiment [5]. For the same compound, in experiment [4], the IC50 is below 10 nM.
As to `Cc1oc2ccccc2c1CN(C)C(=O)/C=C/c1cnc2c(c1)CCC(N1CCCC1)C(=O)N2` (centres unmarked) [Compound 15, (E)-N-methyl-N-[(2-methylbenzofuran-3-yl)methyl]-3-(8-oxo-7-pyrrolidin-1-yl-5,6,7,9-tetrahydropyrido[2,3-b]azepin-3-yl)prop-2-enamide], the MIC in experiment [1] was at most 4 µg/mL; in experiment [2], at most 4 µg/mL; in experiment [3], 16 µg/mL (≈ 34.9 µM); in experiment [5] it was 16 µg/mL (≈ 34.9 µM). The IC50 in experiment [4] was below 10 nM.
For the compound `Cc1oc2ccccc2c1CN(C)C(=O)/C=C/c1cnc2c(c1)N[C@H](C)[C@H](N)C(=O)N2` [Compound 23, (E)-3-((2R,3S)-3-amino-2-methyl-4-oxo-2,3,4,5-tetrahydro-1H-pyrido[2,3-b][1,4]diazepin-8-yl)-N-methyl-N-((2-methylbenzofuran-3-yl)methyl)acrylamide], the MIC in experiment [1] was at most 4 µg/mL; in experiment [2], at most 4 µg/mL; in experiment [3], 8 µg/mL (≈ 19.1 µM); in experiment [5], 8 µg/mL (≈ 19.1 µM). For the same compound, the IC50 in experiment [4] was below 10 nM.
